Reference: ChEMBL document CHEMBL1201862, “PubChem BioAssay data set” (2004)
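Assay format: 96-well plates, 48-hour exposure. GI50 is the concentration that inhibits growth by half.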 Active and inactive are the calls of the source. Cut-off read from the data, not from the text of the source: active = GI50 up to about 1.1 µM and inactive = higher.

How the values were obtained:
Experiment in all cases: growth of human tumour cells (NCI), 48 h
[1] = tested on: A549
[2] = tested on: CAKI-1
[3] = tested on: DMS-114
[4] = tested on: HCT-116
[5] = tested on: HCT-15
[6] = tested on: HL-60
[7] = tested on: HT-29
[8] = tested on: M14
[9] = tested on: NCI-H522
[10] = tested on: OVCAR-4
[11] = tested on: SK-MEL-28
[12] = tested on: SNB-75
[13] = tested on: SR
[14] = tested on: SW-620
[15] = tested on: TK-10
[16] = tested on: A498
[17] = tested on: LOX IMVI

| Structure (SMILES) | GI50 [1] | GI50 [2] | GI50 [3] | GI50 [4] | GI50 [5] | GI50 [6] | GI50 [7] | GI50 [8] | GI50 [9] | GI50 [10] | GI50 [11] | GI50 [12] | GI50 [13] | GI50 [14] | GI50 [15] | GI50 [16] | GI50 [17] |
| --- | --- | --- | --- | --- | --- | --- | --- | --- | --- | --- | --- | --- | --- | --- | --- | --- | --- |
| N#Cc1c2ccccc2cn1-c1ccc(F)cc1 | 24.6 µM (inactive) | 33 µM (inactive) | 16.2 µM (inactive) | 16.8 µM (inactive) | > 10 µM | 4.62 µM (inactive) | 23.5 µM (inactive) | 35.2 µM (inactive) | 14.4 µM (inactive) | 8.73 µM (inactive) | 47.8 µM (inactive) | 2.61 µM (inactive) | > 10 µM (inactive) | 46.2 µM (inactive) | 29 µM (inactive) |  |  |
| N#CC12CCC1C1CCCCC12N1CCSCC1 (stereo not given) | > 100 µM (inactive) | > 100 µM (inactive) | > 100 µM (inactive) | > 100 µM (inactive) | > 100 µM | 16.3 µM (inactive) | > 100 µM (inactive) |  |  | > 10 µM (inactive) | > 100 µM (inactive) | > 100 µM (inactive) | 60.5 µM (inactive) | > 100 µM (inactive) |  | > 100 µM (inactive) |  |
| N#Cc1c2c(c(N=[N+]=[N-])n3c1nc1ccccc13)CCCC2 | 4.67 µM (inactive) | 2.72 µM (inactive) | 1.19 µM (inactive) | 1.43 µM (inactive) | 2.07 µM | 2.32 µM (inactive) | 1.98 µM (inactive) | 1.93 µM (inactive) |  | 2.49 µM (inactive) | 4.12 µM (inactive) | 1.97 µM (inactive) | 2.1 µM (inactive) | 2.05 µM (inactive) | 2.77 µM (inactive) | 2.65 µM (inactive) | 1.8 µM (inactive) |
| O=C(CSc1nnc(-c2ccc(/N=C\c3ccc(Cl)cc3)cc2)o1)Nc1ccc(Cl)cc1 | > 100 µM (inactive) |  | > 100 µM (inactive) | > 100 µM (inactive) | > 100 µM | > 100 µM (inactive) | > 100 µM (inactive) | > 100 µM (inactive) | > 100 µM (inactive) | > 100 µM (inactive) | > 100 µM (inactive) | > 100 µM (inactive) | > 100 µM (inactive) | > 100 µM (inactive) | > 100 µM (inactive) |  | > 100 µM (inactive) |
| CC(=O)NC1C(OCc2ccccc2)OC(COC(=O)CCCCCCCCCCNC(=O)c2cccc3c(=O)c4ccccc4[nH]c23)C(O)C1OC(C)C(=O)NC(C)C(=O)NC(CCC(N)=O)C(N)=O (stereo not given) | 40.9 µM (inactive) | > 100 µM (inactive) | 36.3 µM (inactive) | 79.8 µM (inactive) | 85.3 µM | > 100 µM (inactive) | 75.9 µM (inactive) | > 100 µM (inactive) | 89.1 µM (inactive) | 61 µM (inactive) | 47.3 µM (inactive) | 56.9 µM (inactive) | 40.1 µM (inactive) | 96.6 µM (inactive) | > 100 µM (inactive) | 98.6 µM (inactive) | 49.3 µM (inactive) |
| COC1OC2COC(C)(C)OC2C(OC(C)=O)C1NC(=O)N(CCCl)N=O (stereo not given) | 83 µM (inactive) | > 100 µM (inactive) | > 100 µM (inactive) | > 100 µM (inactive) | > 100 µM | 11.2 µM (inactive) | > 100 µM (inactive) | > 100 µM (inactive) | 11.7 µM (inactive) | > 100 µM (inactive) | > 100 µM (inactive) | 29.1 µM (inactive) |  | > 100 µM (inactive) | > 100 µM (inactive) | > 100 µM (inactive) | 28.7 µM (inactive) |
| COc1cc2c(c3c1c(=O)c1ccccc1n3C)C=CC(C)(C)O2 [ACRONINE] | > 100 µM (inactive) | > 100 µM (inactive) | 45.4 µM (inactive) | > 100 µM (inactive) | 45.3 µM | 60.7 µM (inactive) | 56.9 µM (inactive) | > 100 µM (inactive) | 18.5 µM (inactive) | > 100 µM (inactive) | 48.6 µM (inactive) | 82.6 µM (inactive) | 0.885 µM (active) | > 100 µM (inactive) | > 100 µM (inactive) |  | > 100 µM (inactive) |
| Cc1ccc([S+]([O-])C(C)C(Cl)c2ccccc2)cc1 (stereo not given) |  | > 100 µM (inactive) | 28.2 µM (inactive) | > 100 µM (inactive) | > 100 µM |  | 38.8 µM (inactive) | > 100 µM (inactive) | 28.9 µM (inactive) | > 100 µM (inactive) | > 100 µM (inactive) | 48.6 µM (inactive) | 99.3 µM (inactive) | > 100 µM (inactive) | > 100 µM (inactive) | > 100 µM (inactive) | > 100 µM (inactive) |
| O=C(COC(=O)c1cccc2c(=O)c3ccccc3[nH]c12)Nc1ccccc1 | 50.8 µM (inactive) | 45.8 µM (inactive) | 22.3 µM (inactive) | 24.2 µM (inactive) |  | 16.7 µM (inactive) | 31.8 µM (inactive) | 38 µM (inactive) | 25.3 µM (inactive) | 45.6 µM (inactive) | 43.5 µM (inactive) | 31.8 µM (inactive) | 18.9 µM (inactive) | 90.8 µM (inactive) | > 100 µM (inactive) | 67.8 µM (inactive) | 24.2 µM (inactive) |
| CSc1nc(SC)c2c(C(N)=S)n[nH]c2n1 | 23 µM (inactive) | 21.1 µM (inactive) | 30.1 µM (inactive) |  | 36.2 µM |  | 33 µM (inactive) | 31.9 µM (inactive) | > 10 µM (inactive) | 21.2 µM (inactive) | 31.7 µM (inactive) | 25.9 µM (inactive) | 30.7 µM (inactive) | 37 µM (inactive) | 23.3 µM (inactive) | 24.5 µM (inactive) | 24.1 µM (inactive) |
| C/C=C(\CCOS(=O)(=O)c1ccc(C)cc1)[Si](C)(C)C | > 100 µM (inactive) |  | > 100 µM (inactive) | > 100 µM (inactive) | > 100 µM | > 100 µM (inactive) | > 100 µM (inactive) | > 100 µM (inactive) | > 100 µM (inactive) |  | > 100 µM (inactive) | > 100 µM (inactive) | > 100 µM (inactive) | > 100 µM (inactive) | > 100 µM (inactive) | > 100 µM (inactive) | > 100 µM (inactive) |
| CCOC(=O)C1C(c2ccc([N+](=O)[O-])cc2)NC(c2ccc([N+](=O)[O-])cc2)C(C(=O)OC)S1(=O)=O (stereo not given) | > 100 µM (inactive) | > 100 µM (inactive) | > 100 µM (inactive) | > 100 µM (inactive) | > 100 µM | > 100 µM (inactive) | > 100 µM (inactive) | > 100 µM (inactive) | > 100 µM (inactive) | > 100 µM (inactive) | > 100 µM (inactive) | > 100 µM (inactive) | > 100 µM (inactive) | > 100 µM (inactive) | > 100 µM (inactive) |  | > 100 µM (inactive) |
| S=c1cc(S)c2c(=S)sc3nc4ccccn4c(=S)c3c2s1 | > 100 µM (inactive) | > 100 µM (inactive) | 7.03 µM (inactive) | 25 µM (inactive) | 49.8 µM | 36.1 µM (inactive) | 45.2 µM (inactive) | 35.8 µM (inactive) |  | > 100 µM (inactive) | > 100 µM (inactive) | > 100 µM (inactive) | 25.9 µM (inactive) | > 100 µM (inactive) | > 100 µM (inactive) | > 100 µM (inactive) | 47.2 µM (inactive) |
| CCOC(=O)/C(=C\c1ccc(N(CCC#N)CCC#N)cc1)NC(=O)c1cc([N+](=O)[O-])ccc1Cl | > 100 µM (inactive) | > 100 µM (inactive) | > 100 µM (inactive) | > 100 µM (inactive) | > 100 µM | > 100 µM (inactive) | > 100 µM (inactive) | > 100 µM (inactive) | 56.1 µM (inactive) | > 100 µM (inactive) | > 100 µM (inactive) | > 100 µM (inactive) |  | > 100 µM (inactive) | > 100 µM (inactive) | > 100 µM (inactive) | 69 µM (inactive) |
| CC(C)C/C(CC(=O)CCC(=O)Nc1ccccc1[N+](=O)[O-])=N\NC(=O)c1cc2ccccc2cc1O | > 100 µM (inactive) | 68.2 µM (inactive) | 36.1 µM (inactive) | 49.1 µM (inactive) | 31.6 µM | 23.2 µM (inactive) | 91.2 µM (inactive) | 26.6 µM (inactive) | 28.4 µM (inactive) |  | > 100 µM (inactive) | 37.7 µM (inactive) | 30.2 µM (inactive) | 41.4 µM (inactive) | 51.2 µM (inactive) | 0.0357 µM (active) | 27 µM (inactive) |
| COc1ccccc1-n1c(N)c2c(C)c(-c3ccccc3)[nH]c2nc1=S | 5.74 µM (inactive) | > 100 µM (inactive) | > 100 µM (inactive) | > 100 µM (inactive) | > 100 µM | > 100 µM (inactive) |  | > 100 µM (inactive) | > 100 µM (inactive) | > 100 µM (inactive) | > 100 µM (inactive) | 59.3 µM (inactive) | > 100 µM (inactive) | > 100 µM (inactive) | > 100 µM (inactive) | > 100 µM (inactive) | > 100 µM (inactive) |
| N#C/C(=C/c1cccnc1)C(=O)c1ccccc1 | > 100 µM (inactive) | > 100 µM (inactive) | > 100 µM (inactive) | > 100 µM (inactive) | > 100 µM | > 100 µM (inactive) | > 100 µM (inactive) | > 100 µM (inactive) | > 100 µM (inactive) | > 100 µM (inactive) | > 100 µM (inactive) | > 100 µM (inactive) | > 100 µM (inactive) | > 100 µM (inactive) | > 100 µM (inactive) |  | > 100 µM (inactive) |
